Two molecules from ChEMBL document CHEMBL1121961, “Synthesis and biological evaluation of 6-ethynyluracil, a thiol-specific alkylating pyrimidine” (J Med Chem, 1982) can be followed below.

Assay type in all cases: functional, cell-based
What all share (conditions): Mus musculus

Test [1] deals with B16. The test is described as follows: In vitro inhibitory activity against B16 melanoma cell lines.
Test [2] concerns L1210. The test is described as follows: In vitro inhibitory activity against leukemia L1210 cell lines.
Test [3] relates to Lewis lung carcinoma cell line. Nature of the test: In vitro inhibitory activity against lewis lung cell lines.

Turning to `Oc1cc(/C=C/C(Br)Br)nc(O)n1`, the Concentration was 1 µM in test [1], 1 µM in test [2] and 8 µM in test [3].

`C#Cc1cc(O)nc(O)n1`: the Concentration was found to be 10 µM in test [1], 7 µM in test [2] and 20 µM in test [3].
